As a reminder, the melting point is the temperature of the solid-liquid transition. In turn, `CCOC(=O)C1=C(C)NC(c2ccccn2)=NC1c1ccccc1` (stereo not shown) registered a melting point of 101 to 103 °C.
As to `COC(=O)C1=C(C)NC(c2ccccn2)=NC1c1ccccc1OC` (stereo not shown), the melting point was in the range of 103 to 104 °C.
Compound `COC(=O)C1=C(C)NC(c2ccccn2)=NC1c1ccccc1C` (stereo not shown) displayed a melting point of 100 to 101 °C.
Take `COC(=O)C1=C(C)NC(c2ccccn2)=NC1c1ccc(C#N)cc1` (stereo not shown): the melting point fell in the range of 141 to 143 °C.
In turn, `CCOC(=O)C1=C(C)NC(c2ccncc2)=NC1c1ccccc1Cl` (stereo not shown) yielded a melting point of 101 to 103 °C.
In turn, `COC(=O)C1=C(C)NC(c2ccccn2)=NC1c1ccc(F)cc1[N+](=O)[O-]` (stereo not shown) came in with a melting point of 175 to 176 °C.
`COC(=O)C1=C(C)NC(c2ccccn2)=NC1c1ccsc1` (stereo not shown) came in with a melting point of 108 to 109 °C.
The result for `CC1=C(C(=O)OC(C)C)C(c2ccccc2Cl)N=C(c2ccccn2)N1` (stereo not shown) reads 93 to 95 °C; that for `COC(=O)C1=C(C)NC(c2ccccn2)=NC1c1ccc(-n2ccnn2)cc1` (stereo not shown), 149 to 150 °C.
As for `COC(=O)C1=C(C)NC(c2ccccn2)=NC1C1CCCCC1.Cl` (stereo not shown), the melting point is 149 to 150 °C.
The figure for `COC(=O)C1=C(C)NC(c2ccccn2)=NC1c1cccc(Cl)c1Cl` (stereo not shown) is 125 to 127 °C; for `COC(=O)C1=C(C)NC(c2ccccn2)=NC1c1cccc2sc(-c3ccccc3)nc12` (stereo not shown) it is 172 to 173 °C.
The compound `CCCCOC(=O)C1=C(C)NC(c2ccccn2)=NC1c1ccccc1Cl` (stereo not shown) returned a melting point of 176 to 178 °C.
The compound `COC(=O)C1=C(C)NC(c2cccnc2)=NC1c1ccccc1Cl` (stereo not shown) showed a melting point of 131 to 133 °C.
In the case of `COC(=O)C1=C(C)NC(c2ccccn2)=NC1c1cc([N+](=O)[O-])ccc1Cl` (stereo not shown), the melting point fell in the range of 151 to 153 °C.
The figure for `COC(=O)C1=C(C)NC(c2ccccn2)=NC1c1ccccc1[N+](=O)[O-]` (stereo not shown) is 167 to 168 °C.
In turn, `COC(=O)C1=C(C)NC(c2ccccn2)=NC1c1ccc(Cl)cc1` (stereo not shown) registered a melting point of 201 to 202 °C.
The figure for `COOCC1=C(C)NC(c2ccccn2)=NC1c1cccc(Cl)c1` (stereo not shown) is 122 to 123 °C; for `COOCC1=C(C)NC(c2ccccn2)=NC1c1cccc([N+](=O)[O-])c1` (stereo not shown) it is 179 to 180 °C.
Turning to `CC1=C(C(=O)OCCC#N)C(c2ccccc2Cl)N=C(c2ccccn2)N1` (stereo not shown), the melting point was in the range of 138 to 139 °C.
On to `COC(=O)C1=C(C)NC(c2ccccn2)=NC1c1ccccc1F` (stereo not shown), for which the melting point lay in the range of 217 to 218 °C.
In the case of `COOCC1=C(C)NC(c2ccccn2)=NC1c1ccco1` (stereo not shown), the melting point lay in the range of 122 to 124 °C.
The compound `CCCOOCC1=C(C)NC(c2ccccn2)=NC1c1ccccc1Cl` (stereo not shown) had a melting point of 105 to 110 °C.
In the case of `COOCC1=C(C)NC(c2ccccn2)=NC1c1ccccc1O` (stereo not shown), the melting point was 131 to 132 °C.
In the case of `COC(=O)C1=C(C)NC(c2ccccn2)=NC1c1cccc2ncc(-c3ccccc3)cc12` (stereo not shown), the melting point is 176 to 177 °C.
